From ChEMBL document CHEMBL5696442, “Discovery of type II inhibitors of TGFβ-activated kinase 1 (TAK1) and mitogen-activated protein kinase kinase kinase kinase 2 (MAP4K2)” (J Med Chem, 2015)
Calls of active or inactive are those of the source. No cut-off for these calls is given here.

Key:
[1] = biological target: T1, Myotonin-protein kinase (Homo sapiens) (UniProt Q09013); test: Inhibition of DMPK (unknown origin) at 10 uM by Ambit Kinomescan binding assay
T1 sequence (whole entry): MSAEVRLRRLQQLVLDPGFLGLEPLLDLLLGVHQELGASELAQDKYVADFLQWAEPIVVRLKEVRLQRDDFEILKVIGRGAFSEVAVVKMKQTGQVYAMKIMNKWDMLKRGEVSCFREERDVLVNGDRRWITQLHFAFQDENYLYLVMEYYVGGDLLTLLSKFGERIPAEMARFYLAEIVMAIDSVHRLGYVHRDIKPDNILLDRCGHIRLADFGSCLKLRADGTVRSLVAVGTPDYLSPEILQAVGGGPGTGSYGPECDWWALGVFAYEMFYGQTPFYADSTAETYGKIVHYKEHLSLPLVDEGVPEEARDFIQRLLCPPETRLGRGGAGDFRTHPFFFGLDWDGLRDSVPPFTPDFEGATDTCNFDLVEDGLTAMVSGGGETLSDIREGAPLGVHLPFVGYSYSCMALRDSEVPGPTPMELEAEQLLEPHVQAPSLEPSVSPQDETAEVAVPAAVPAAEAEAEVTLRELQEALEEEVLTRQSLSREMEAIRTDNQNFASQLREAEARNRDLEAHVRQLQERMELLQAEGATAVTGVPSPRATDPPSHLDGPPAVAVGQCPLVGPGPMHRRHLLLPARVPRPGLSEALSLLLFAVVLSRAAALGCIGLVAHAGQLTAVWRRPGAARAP

[2] = biological target: T2, Mitogen-activated protein kinase kinase kinase 6 (Homo sapiens) (UniProt O95382); test: Inhibition of MAP3K6 Lys1 labeling site harbouring IAIKEIPER in human A-375 cells at 5 uM by KiNativ Profiling analysis relative to control; format: cell-based
T2 sequence (whole entry): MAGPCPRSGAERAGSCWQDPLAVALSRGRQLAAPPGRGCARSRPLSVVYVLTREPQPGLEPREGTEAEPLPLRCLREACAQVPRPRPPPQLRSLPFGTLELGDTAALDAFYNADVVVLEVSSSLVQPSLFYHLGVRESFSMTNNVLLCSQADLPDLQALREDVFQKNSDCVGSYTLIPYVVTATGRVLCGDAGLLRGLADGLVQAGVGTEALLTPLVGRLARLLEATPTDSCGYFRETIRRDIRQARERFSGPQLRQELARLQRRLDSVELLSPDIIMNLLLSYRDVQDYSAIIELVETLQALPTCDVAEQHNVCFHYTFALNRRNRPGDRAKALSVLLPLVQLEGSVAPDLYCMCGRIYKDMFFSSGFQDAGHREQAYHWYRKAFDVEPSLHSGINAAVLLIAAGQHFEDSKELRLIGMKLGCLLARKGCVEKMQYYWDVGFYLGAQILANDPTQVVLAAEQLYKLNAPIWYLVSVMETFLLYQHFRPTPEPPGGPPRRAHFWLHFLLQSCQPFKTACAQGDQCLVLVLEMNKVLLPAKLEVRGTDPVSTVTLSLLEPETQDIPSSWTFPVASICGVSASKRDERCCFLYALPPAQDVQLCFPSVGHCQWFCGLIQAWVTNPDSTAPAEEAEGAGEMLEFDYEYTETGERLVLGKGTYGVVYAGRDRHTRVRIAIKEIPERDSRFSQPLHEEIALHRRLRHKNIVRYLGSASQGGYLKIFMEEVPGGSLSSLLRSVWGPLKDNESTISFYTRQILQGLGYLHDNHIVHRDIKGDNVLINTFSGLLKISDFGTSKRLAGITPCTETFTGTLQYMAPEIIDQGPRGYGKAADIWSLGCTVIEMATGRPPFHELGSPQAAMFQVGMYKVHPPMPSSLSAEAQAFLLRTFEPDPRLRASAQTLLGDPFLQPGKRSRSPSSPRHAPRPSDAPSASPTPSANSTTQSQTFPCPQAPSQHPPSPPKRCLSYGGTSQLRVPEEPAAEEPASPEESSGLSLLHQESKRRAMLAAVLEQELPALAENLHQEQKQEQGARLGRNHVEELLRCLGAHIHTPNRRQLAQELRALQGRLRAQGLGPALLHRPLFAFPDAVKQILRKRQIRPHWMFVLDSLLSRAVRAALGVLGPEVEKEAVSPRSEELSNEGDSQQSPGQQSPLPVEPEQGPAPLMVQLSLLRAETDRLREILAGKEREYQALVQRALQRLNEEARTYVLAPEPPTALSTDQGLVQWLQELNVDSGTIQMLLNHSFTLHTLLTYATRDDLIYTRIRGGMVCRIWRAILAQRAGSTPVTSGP

[3] = biological target: Phosphatidylinositol 4,5-bisphosphate 3-kinase catalytic subunit alpha isoform (Homo sapiens) (UniProt P42336); test: Inhibition of PIK3CA ATP labeling site in human Huh-7 cell lysate at 1 uM by KiNativ Profiling analysis relative to control; format: subcellular
Chain of Phosphatidylinositol 4,5-bisphosphate 3-kinase catalytic subunit alpha isoform (Homo sapiens) (P42336 whole entry, canonical isoform): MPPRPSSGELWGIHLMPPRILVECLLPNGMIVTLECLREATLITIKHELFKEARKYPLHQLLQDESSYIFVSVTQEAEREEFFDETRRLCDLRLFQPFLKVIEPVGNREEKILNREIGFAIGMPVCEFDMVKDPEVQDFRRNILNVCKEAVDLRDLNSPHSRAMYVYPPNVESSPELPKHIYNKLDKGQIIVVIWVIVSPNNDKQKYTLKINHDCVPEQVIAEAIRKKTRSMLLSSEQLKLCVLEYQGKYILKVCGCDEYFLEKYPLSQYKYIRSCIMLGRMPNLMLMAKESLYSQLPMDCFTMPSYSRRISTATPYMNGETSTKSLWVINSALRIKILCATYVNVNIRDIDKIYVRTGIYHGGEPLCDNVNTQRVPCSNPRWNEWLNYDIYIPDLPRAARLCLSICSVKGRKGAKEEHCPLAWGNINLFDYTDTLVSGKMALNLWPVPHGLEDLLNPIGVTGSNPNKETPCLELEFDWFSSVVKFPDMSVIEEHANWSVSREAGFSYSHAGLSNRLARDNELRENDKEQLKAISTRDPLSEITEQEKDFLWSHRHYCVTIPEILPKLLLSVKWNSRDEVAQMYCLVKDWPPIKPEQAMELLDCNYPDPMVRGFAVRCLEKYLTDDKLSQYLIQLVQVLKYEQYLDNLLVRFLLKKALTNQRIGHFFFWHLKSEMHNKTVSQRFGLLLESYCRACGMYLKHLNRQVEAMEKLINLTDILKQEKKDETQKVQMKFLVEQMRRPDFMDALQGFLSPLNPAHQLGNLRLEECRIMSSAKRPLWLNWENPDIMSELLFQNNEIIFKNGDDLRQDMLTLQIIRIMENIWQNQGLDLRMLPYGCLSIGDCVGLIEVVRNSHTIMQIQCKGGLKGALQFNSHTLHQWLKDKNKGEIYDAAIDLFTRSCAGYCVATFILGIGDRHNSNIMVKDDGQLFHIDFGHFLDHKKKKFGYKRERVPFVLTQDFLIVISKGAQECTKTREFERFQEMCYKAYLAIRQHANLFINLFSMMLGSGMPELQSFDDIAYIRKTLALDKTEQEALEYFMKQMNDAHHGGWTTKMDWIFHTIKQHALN

[4] = biological target: T3, Serine/threonine-protein kinase TAO1 (Homo sapiens) (UniProt Q7L7X3); test: Inhibition of TAO1 Lys2 labeling site in human Huh-7 cell lysate at 1 uM by KiNativ Profiling analysis relative to control; format: subcellular
T3 sequence (whole entry): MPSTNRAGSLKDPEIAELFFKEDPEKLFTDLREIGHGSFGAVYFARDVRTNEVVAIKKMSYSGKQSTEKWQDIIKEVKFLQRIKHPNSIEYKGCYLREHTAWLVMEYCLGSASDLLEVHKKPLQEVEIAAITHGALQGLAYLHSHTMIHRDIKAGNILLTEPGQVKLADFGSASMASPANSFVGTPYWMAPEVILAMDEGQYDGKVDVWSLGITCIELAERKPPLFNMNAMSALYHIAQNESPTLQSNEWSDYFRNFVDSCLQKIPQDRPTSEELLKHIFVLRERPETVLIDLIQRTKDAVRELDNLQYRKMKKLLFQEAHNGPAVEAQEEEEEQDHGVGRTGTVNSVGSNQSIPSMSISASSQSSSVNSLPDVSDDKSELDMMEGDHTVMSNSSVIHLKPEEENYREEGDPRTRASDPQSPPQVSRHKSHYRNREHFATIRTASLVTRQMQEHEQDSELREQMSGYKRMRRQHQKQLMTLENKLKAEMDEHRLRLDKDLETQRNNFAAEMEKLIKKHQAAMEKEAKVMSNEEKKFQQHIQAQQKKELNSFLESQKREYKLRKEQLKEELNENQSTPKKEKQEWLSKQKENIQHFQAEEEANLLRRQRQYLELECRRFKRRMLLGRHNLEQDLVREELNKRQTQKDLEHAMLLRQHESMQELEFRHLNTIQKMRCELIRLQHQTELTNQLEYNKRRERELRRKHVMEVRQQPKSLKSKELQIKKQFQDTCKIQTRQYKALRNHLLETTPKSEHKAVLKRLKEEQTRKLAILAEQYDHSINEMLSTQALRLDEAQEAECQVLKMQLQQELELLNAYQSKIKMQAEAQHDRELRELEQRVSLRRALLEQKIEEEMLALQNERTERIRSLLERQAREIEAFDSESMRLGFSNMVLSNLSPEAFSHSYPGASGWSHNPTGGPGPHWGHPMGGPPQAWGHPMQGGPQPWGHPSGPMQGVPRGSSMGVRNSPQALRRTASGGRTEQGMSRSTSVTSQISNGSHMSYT

Compound	inhibition [1]	inhibition [2] [%]	inhibition [3] [%]	inhibition [4] [%]
CCN1CCN(Cc2ccc(NC(=O)c3ccc(C)c(Oc4ccnc5[nH]ccc45)c3)cc2C(F)(F)F)CC1	inactive	-0.6	–	–
CNc1cc(Oc2cc(C(=O)Nc3cc(N4CCN(C)CC4)cc(C(F)(F)F)c3)ccc2C)ncn1	–	–	12.4	-1.2
